The values that follow are results of earlier work, collected in patent US20040059096A1, “Anti-ciguatoxin monoclonal antibody” (priority 2001, published 2004).

For this data set the following is noted: species and route not given.

Regarding `C[C@@H]1C[C@@H]2O[C@@H]3[C@@H](C)[C@H](O)[C@@H]4OC5(C[C@H](O)CO5)[C@@H](C)[C@H](C)[C@H]4O[C@H]3C[C@H]2O[C@H]2C[C@H]3O[C@@H]4/C=C\C[C@H]5O[C@H]6C=C[C@H]7O[C@H]8[C@H](O)[C@H]9O[C@@H](/C=C/[C@H](O)CO)C=CC[C@@H]9O[C@@H]8C[C@@H]7O[C@@H]6C=C[C@@H]5O[C@@H]4C[C@@H](O)[C@]3(C)O[C@@H]2C1` (stereo partly shown) [CTX], the LD50 was 0.35 µg/kg.

The LD50 is the dose expected to kill half of the subjects tested.
